Measured values from publication PMC7504751, “Potential of 2-Chloro-N-(4-fluoro-3-nitrophenyl)acetamide Against Klebsiella pneumoniae and In Vitro Toxicity Analysis” (Molecules, 2020).
Like-named read-outs stand apart in the source and are kept apart here.

What was measured:
Hemolytic activity = format: cell-based; conditions: human, 0.5% red blood cell suspension
Description: The tests were performed according to the recommendations established by the Code of Ethics of the World Medical Association, after approval by the ethics committee of the Centro Universitário de Patos (number: 3621284). Blood samples (types A, B, and O) and smears of oral mucosa were donated by young, healthy adults.
The red blood cell (RBC) samples from blood donors were diluted in 0.9% NaCl at a 1:30 ratio and centrifuged at 2500 rpm for five minutes to obtain the 0.5% suspension free of white blood cells and platelets. Then, the A2 substance was added to the red blood cell suspensions, at 50, 100, 500, and 1000 µg/mL concentrations. As controls, a suspension of red cells without treatment (0% hemolysis) were used as a negative control and a suspension of red cells treated with 1% Triton X-100 (100% hemolysis) as a positive control. The assay was incubated for one hour at 22 ± 2 °C. After that time, the samples were centrifuged at 700× g for 5 min and hemolysis was quantified by spectrophotometry at a wavelength of 540 nm.

oral mucosa cells = experiment: Genotoxic effects on oral mucosa cells; format: cell-based, human; conditions: for Binucleation / Karyolysis / Karyorrhexis / Micronucleus / Normal: 30 min ex vivo
Description: The tests were performed according to the recommendations established by the Code of Ethics of the World Medical Association, after approval by the ethics committee of the Centro Universitário de Patos (number: 3621284). Blood samples (types A, B, and O) and smears of oral mucosa were donated by young, healthy adults. First, the oral mucosa cells were collected from the donors, which was done with a cyto-brush (smear collector) in the cheek area, and the material obtained was placed in 5 mL of 0.9% NaCl. As controls, cells treated with hydrogen peroxide −0.0005% (positive control) and untreated cells (negative control) were used. The cells were washed twice with saline and centrifuged for 10 min at 400× g and kept in saline. After the third wash, the cells were exposed (ex vivo) to A2 substance at 50, 100, 500, and 1000 µg/mL concentrations for 30 min. The material was centrifuged and the supernatant was discarded before smear preparation. The cells were homogenized in a vortex and placed on the slides at room temperature for drying for 15 min. Then, they were fixed with methanol: acetic acid (3:1) for 15 min and stained with 2% Giemsa.

What does the source list for O=C(CCl)Nc1ccc(F)c([N+](=O)[O-])c1 [A2, 2-chloro-N-(4-fluoro-3-nitrophenyl)acetamide]?
hemolysis at 1 h (Hemolytic activity; blood types A, B and O, 50–500 µg/mL, all tested blood types, 1 h at 22 ± 2 °C): 4 to 20%; hemolysis at 1 h, 1000 µg/mL (Hemolytic activity; blood type O, read-out: hemolysis (average erythrocyte lysis)): 8%; hemolysis at 1 h, 1000 µg/mL (Hemolytic activity; blood types A and B, read-out: hemolysis): 37 to 47%; Binucleation (oral mucosa cells; 50 µg/mL): 0.00%; Karyolysis (oral mucosa cells; 50 µg/mL): 1.00%; Karyorrhexis (oral mucosa cells; 50 µg/mL): 1.00%; Micronucleus (oral mucosa cells; 50 µg/mL): 0.50%; Normal (oral mucosa cells; 50 µg/mL): 97.50%; Binucleation (oral mucosa cells; 100 µg/mL): 0.00%; Karyolysis (oral mucosa cells; 100 µg/mL): 3.00%; Karyorrhexis (oral mucosa cells; 100 µg/mL): 4.00%; Micronucleus (oral mucosa cells; 100 µg/mL): 0.50%; Normal (oral mucosa cells; 100 µg/mL): 92.50%; Binucleation (oral mucosa cells; 500 µg/mL): 0.50%; Karyolysis (oral mucosa cells; 500 µg/mL): 4.00%; Karyorrhexis (oral mucosa cells; 500 µg/mL): 5.00%; Micronucleus (oral mucosa cells; 500 µg/mL): 0.70%; Normal (oral mucosa cells; 500 µg/mL): 86.80%; Binucleation (oral mucosa cells; 1000 µg/mL): 0.50%; Karyolysis (oral mucosa cells; 1000 µg/mL): 5.00%; Karyorrhexis (oral mucosa cells; 1000 µg/mL): 7.00%; Micronucleus (oral mucosa cells; 1000 µg/mL): 2.00%; Normal (oral mucosa cells; 1000 µg/mL): 83.50%; normal cells (oral mucosa cells; all tested concentrations (50–1000 µg/mL)): greater than 80%
